From PubChem BioAssay AID248 (DTP/NCI, 2004)
Toxic doses and inconclusive results are not listed. No stated cut-off is given here; in the data, active means T/C of 150% or more; inactive means T/C below 125%.

Test system: L1210 leukemia ip in BDF1 mice, survival T/C
Assay: NCI In Vivo Anticancer Drug Screen. Data for tumor model L1210 Leukemia (intraperitoneal) in B6D2F1 (BDF1) mice
Conditions: endpoint: mean survival time, higher = longer survival
Procedure, shortened: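 Antitumor effect is assessed in tumor-bearing animals. Survival in the compound arm is compared with a vehicle-dosed control arm and expressed as their quotient.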

[1] = dose: 100.0 mg/kg/injection, schedule: Q01DX001 (ip), vehicle: saline
[2] = dose: 200.0 mg/kg/injection, schedule: Q01DX001 (ip), vehicle: saline
[3] = dose: 400.0 mg/kg/injection, schedule: Q01DX001 (ip), vehicle: saline
[4] = dose: 100.0 mg/kg/injection, schedule: Q01DX009 (ip), vehicle: Klucel (hydroxypropylcellulose) (HPC)
[5] = dose: 100.0 mg/kg/injection, schedule: Q04DX003 (ip), vehicle: Klucel (hydroxypropylcellulose) (HPC)
[6] = dose: 200.0 mg/kg/injection, schedule: Q01DX009 (ip), vehicle: Klucel (hydroxypropylcellulose) (HPC)
[7] = dose: 200.0 mg/kg/injection, schedule: Q04DX003 (ip), vehicle: Klucel (hydroxypropylcellulose) (HPC)
[8] = dose: 400.0 mg/kg/injection, schedule: Q01DX009 (ip), vehicle: Klucel (hydroxypropylcellulose) (HPC)
[9] = dose: 400.0 mg/kg/injection, schedule: Q04DX003 (ip), vehicle: Klucel (hydroxypropylcellulose) (HPC)
[10] = dose: 100.0 mg/kg/injection, schedule: Q01DX001 (ip), vehicle: carboxymethylcellulose (CMC)
[11] = dose: 100.0 mg/kg/injection, schedule: Q04DX002 (ip), vehicle: saline
[12] = dose: 200.0 mg/kg/injection, schedule: Q04DX002 (ip), vehicle: saline
[13] = dose: 400.0 mg/kg/injection, schedule: Q04DX002 (ip), vehicle: saline

Measured: T/C

NC(=O)C(Cc1ccc(O)cc1)N(CCO)CCO (centres undefined)
inactive: [1] 101 % of control | [2] 101 % of control | [3] 104 % of control

CC(/C=N/NC(=O)NO)=N\NC(=O)NO
inactive: dose: 100.0 mg/kg/injection, schedule: Q01DX001 (ip), vehicle: other 98 % of control | dose: 100.0 mg/kg/injection, schedule: Q01DX009 (ip), vehicle: saline with Tween-80 98 % of control | dose: 100.0 mg/kg/injection, schedule: Q04DX003 (ip), vehicle: other 112 % of control | dose: 200.0 mg/kg/injection, schedule: Q01DX001 (ip), vehicle: other 98 % of control | dose: 200.0 mg/kg/injection, schedule: Q01DX009 (ip), vehicle: saline with Tween-80 97 % of control | dose: 200.0 mg/kg/injection, schedule: Q04DX003 (ip), vehicle: other 102 % of control | dose: 400.0 mg/kg/injection, schedule: Q01DX001 (ip), vehicle: other 104 % of control | dose: 400.0 mg/kg/injection, schedule: Q01DX009 (ip), vehicle: saline with Tween-80 104 % of control | dose: 400.0 mg/kg/injection, schedule: Q04DX003 (ip), vehicle: other 98 % of control

CCOC(=O)Cc1c(C)[nH]c2c(C)ccc(C)c12
inactive: dose: 5.0 mg/kg/injection, schedule: Q01DX001 (ip), vehicle: other 94 % of control | dose: 10.0 mg/kg/injection, schedule: Q01DX001 (ip), vehicle: other 91 % of control | dose: 20.0 mg/kg/injection, schedule: Q01DX001 (ip), vehicle: other 105 % of control | dose: 40.0 mg/kg/injection, schedule: Q01DX001 (ip), vehicle: other 96 % of control | dose: 80.0 mg/kg/injection, schedule: Q01DX001 (ip), vehicle: other 100 % of control

Cc1cc(=O)[nH]c(O)c1C(=O)/C=C/c1ccccc1
inactive: [1] 96 % of control | [2] 102 % of control

Nc1c(Br)cc2c(c1Br)Cc1cc(Br)ccc1-2
inactive: dose: 200.0 mg/kg/injection, schedule: Q01DX Z (ip), vehicle: saline 109 % of control | dose: 400.0 mg/kg/injection, schedule: Q01DX Z (ip), vehicle: saline 107 % of control | dose: 800.0 mg/kg/injection, schedule: Q01DX Z (ip), vehicle: saline 112 % of control | dose: 1600.0 mg/kg/injection, schedule: Q01DX Z (ip), vehicle: saline 112 % of control

Nc1ccc(S(=O)(=O)Nc2cccc3ccccc23)cc1
inactive: [4] 100 % of control | [5] 90 % of control | [6] 99 % of control | [7] 92 % of control | [8] 101 % of control | [9] 95 % of control

CC(C)=CCC/C(C)=C/CC/C(C)=C/COC(N)=O
inactive: [5] 93 % of control | [7] 96 % of control | [9] 91 % of control

CC(=O)Nc1cc2c3ccccc3ccc2c2ccccc12
inactive: [10] 87 % of control

CCCCCCCC(=O)N1C(C)CCC1C (centres undefined)
inactive: [11] 94 % of control | [12] 94 % of control | [13] 98 % of control

CN1CC(C(=O)NC(C)(C)C)CC(c2ccccc2)C1 (centres undefined)
inactive: dose: 6.25 mg/kg/injection, schedule: Q01DX009 (ip), vehicle: saline 91 % of control | dose: 12.5 mg/kg/injection, schedule: Q01DX009 (ip), vehicle: saline 86 % of control | dose: 25.0 mg/kg/injection, schedule: Q01DX009 (ip), vehicle: saline 86 % of control

COc1cc(Br)c(NC(C)=O)cc1OC
inactive: [1] 98 % of control | [2] 108 % of control | [3] 96 % of control

Nc1cnccc1N1CCN(c2ccc(Cl)c(Cl)c2)CC1
inactive: dose: 100.0 mg/kg/injection, schedule: Q01DX009 (ip), vehicle: gum acacia 95 % of control

CNc1ccccc1C(=O)N/N=C/c1ccc(OC)cc1
inactive: [11] 102 % of control | [12] 99 % of control | [13] 102 % of control

CN(C)CCCCNc1ccc(NCCCCN(C)C)c2c1C(=O)c1c(O)ccc(O)c1C2=O
inactive: [11] 99 % of control | [12] 105 % of control

CC(=O)Nc1ccc(/C=C(\C#N)c2cccc3ccccc23)cc1
inactive: [4] 90 % of control | [6] 87 % of control | [8] 88 % of control

O=C(O)c1cccn1-c1cccc2c(-n3cccc3C(=O)O)cccc12
inactive: dose: 50.0 mg/kg/injection, schedule: Q04DX002 (ip), vehicle: saline + alcohol 99 % of control | dose: 100.0 mg/kg/injection, schedule: Q04DX002 (ip), vehicle: saline + alcohol 89 % of control | dose: 200.0 mg/kg/injection, schedule: Q04DX002 (ip), vehicle: saline + alcohol 96 % of control

CCCCCCCCCCCCN(CCC(=O)O)S(=O)(=O)O
inactive: dose: 12.5 mg/kg/injection, schedule: Q04DX003 (ip), vehicle: Klucel (hydroxypropylcellulose) (HPC) 101 % of control | dose: 25.0 mg/kg/injection, schedule: Q01DX009 (ip), vehicle: Klucel (hydroxypropylcellulose) (HPC) 94 % of control | dose: 25.0 mg/kg/injection, schedule: Q04DX003 (ip), vehicle: Klucel (hydroxypropylcellulose) (HPC) 98 % of control | dose: 50.0 mg/kg/injection, schedule: Q01DX009 (ip), vehicle: Klucel (hydroxypropylcellulose) (HPC) 96 % of control | dose: 50.0 mg/kg/injection, schedule: Q04DX003 (ip), vehicle: Klucel (hydroxypropylcellulose) (HPC) 102 % of control | [4] 94 % of control | [5] 97 % of control

CC(=O)Nc1cc2ccc3ccccc3c2c2ccccc12
inactive: dose: 75.0 mg/kg/injection, schedule: Q04DX002 (ip), vehicle: Klucel (hydroxypropylcellulose) (HPC) 102 % of control | dose: 150.0 mg/kg/injection, schedule: Q04DX002 (ip), vehicle: Klucel (hydroxypropylcellulose) (HPC) 97 % of control | dose: 300.0 mg/kg/injection, schedule: Q04DX002 (ip), vehicle: Klucel (hydroxypropylcellulose) (HPC) 97 % of control

CCCC(C(=O)OCC)C(=O)c1ccccc1 (centres undefined)
inactive: [5] 95 % of control | [7] 98 % of control | [9] 92 % of control

c1ccc(CCN2CCCCC2)cc1
inactive: dose: 10.0 mg/kg/injection, schedule: Q01DX001 (ip), vehicle: saline 95 % of control | dose: 20.0 mg/kg/injection, schedule: Q01DX001 (ip), vehicle: saline 116 % of control | dose: 40.0 mg/kg/injection, schedule: Q01DX001 (ip), vehicle: saline 96 % of control

Nc1c([N+](=O)[O-])cc([N+](=O)[O-])c2ccccc12
inactive: dose: 15.0 mg/kg/injection, schedule: Q01DX015 (ip), vehicle: carboxymethylcellulose (CMC) 91 % of control | dose: 30.0 mg/kg/injection, schedule: Q01DX015 (ip), vehicle: carboxymethylcellulose (CMC) 91 % of control | dose: 50.0 mg/kg/injection, schedule: Q01DX001 (ip), vehicle: carboxymethylcellulose (CMC) 104 % of control | dose: 60.0 mg/kg/injection, schedule: Q01DX015 (ip), vehicle: carboxymethylcellulose (CMC) 102 % of control | [10] 101 % of control | dose: 120.0 mg/kg/injection, schedule: Q01DX015 (ip), vehicle: carboxymethylcellulose (CMC) 98 % of control

COc1ccc(C2Nc3cc(Cl)ccc3NC3=C2C(=O)CC(C)(C)C3)cc1 (centres undefined)
inactive: dose: 100.0 mg/kg/injection, schedule: Q04DX002 (ip), vehicle: Klucel (hydroxypropylcellulose) (HPC) 105 % of control | dose: 200.0 mg/kg/injection, schedule: Q04DX002 (ip), vehicle: Klucel (hydroxypropylcellulose) (HPC) 94 % of control | dose: 400.0 mg/kg/injection, schedule: Q04DX002 (ip), vehicle: Klucel (hydroxypropylcellulose) (HPC) 102 % of control
